# “Also recorded” adds a separate entry of the source. Where two headings read alike, the source gives them in different places.
# Tests used:
# EP300 = biological target: T1, EP300 (Homo sapiens, UniProt Q09472); assay: Western blotting of EP300 in treated NB cells; format: cell-based
# T1 construct: Cells growing in culture were lysed for whole cell lysates; endogenous in cells; host or cells: Kelly, NGP, SIMA, BE2C neuroblastoma cells; Kelly xenografts in NSG mice
# Protocol: (§1) Cells growing in culture were lysed for whole cell lysates as described in Durbin et al. Nat. Genet. 50:1240-1246 (2018) and Wang et al. Nat. Commun. 10:5622 (2019). Nuclear lysates were prepared using the NE-PER® nuclear lysate kit (Thermo Scientific™) according to the manufacturer's protocol. Chromatin lysates were prepared with the total histone extraction kit (Epigentek). Briefly, equivalent amounts of protein were resolved by western blotting using 4-12% Bis-Tris NuPAGE™ gels (Thermo-Fisher Scientific) prior to transfer, and immunoblotting using primary antibodies to: MYCN (1:1000, Cell Signaling Technology®), H3K27ac (1:1000, Abcam), total H3 (1:1000, Cell Signaling Technology®), EP300 (1:1000, Abcam), CBP (1:500, Cell Signaling Technology®), Cas9 (1:1000, Cell Signaling Technology®), cleaved-PARP1 (1:1000, Cell Signaling Technology), cleaved Caspase-3 (1:1000, Cell Signaling Technology®), β-actin (1:1000, Cell Signaling Technology®), GATA3 (1:1000, EMD Millipore™), TFAP2β (1:1000, Cell Signaling Technology®), Vinculin (1:1000, EMD Millipore™), CRBN (1:1000, Cell Signaling Technology®), HAND2 (1:1000, Santa Cruz Biotechnology). Secondary antibodies were horseradish peroxidase (HRP)-conjugated anti-rabbit or anti-mouse (1:5000, Santa Cruz Biotechnology), incubated prior to exposure to enhanced chemiluminescence reagents (GE, Amersham). For immunoprecipitation, equal amounts of protein were diluted in buffer C as described in Mansour et al. Science 346:1373-1377 (2014) and incubated with antibodies covalently conjugated to Dynabeads™ M-270 beads (Thermo-Fisher Scientific) overnight according to the manufacturer's directions. Antibodies used included: H3K27ac, EP300 (Abcam), CBP, TFAP2β (Cell Signaling Technology®), rabbit immunoglobulin G (IgG) (Santa Cruz Biotechnology®). Immunoprecipitated protein was isolated as per the manufacturer's directions and subjected to western blotting, as described above, or mass spectrometry.
# MYCN = assay: Western blotting of MYCN (whole lysates and chromatin extracts); format: cell-based, human; details: Kelly cells, 0.5 and 1 μM, 24 h, chromatin extracts
# Protocol: as §1
# [1] = Pharmacokinetic analysis after a single intraperitoneal dose in CD1 mice; format: in vivo, mouse; details: 10 mg/Kg single IP dose, murine serum
# Protocol: (§2) For toxicity studies, four female CD1 mice (Charles River Laboratories) were injected intraperitoneally (IP) with single doses of 10 mg/Kg (R,S)-JQAD1 solubilized in 10% hydroxypropyl β-cyclodextrin (Sigma-Aldrich®) in sterile water. Following injection, blood concentration of (R,S)-JQAD1 was measured by serial measurements of animal serum at time points out to 24 h, by liquid chromatography with tandem mass spectrometry (LC-MS/MS) analysis. Pharmacokinetics were performed at ChemPartner in Shanghai, China, using LC-MS/MS method and pharmacokinetics parameters (Tmax, Cmax, T1/2, AUC, etc.) calculated with WinNonlin® V 6.2 statistics software (Pharsight Corporation) using a noncompartmental model. For maximally tolerated dose (MTD) testing, six female CD1 mice were treated with daily IP doses of (R,S)-JQAD1 at 10, 20, or 40 mg/kg. Animals were monitored for animal weight, grooming and behavior daily without noted effects. For MTD testing in humanized CRBN knockin (Balb/c CRBN^ILE391VAL) (Jackson Laboratories), 6 mice per treatment group were treated with either vehicle control or (R,S)-JQAD1 at 40 mg/kg/day by IP injection. Animal weights, behavior and grooming were monitored daily, for a total of 21 days. At day 14, three mice per treatment group were sacrificed and tissues fixed for immunohistochemistry. Blood samples were obtained by retro-orbital puncture and blood analyzed at the Small Animal Imaging Facility at Beth Israel Deaconess Medical Center (Boston, MA), on a Hemavet® 9500FS (Drew Scientific) for blood counts, creatinine, AST, ALT, ALP, GGTP, and BUN measurements.
# [2] = Maximum tolerated dose testing, daily IP dosing in CD1 mice; format: in vivo
# Protocol: as §2, with “For MTD testing in humanized CRBN knockin (Balb/c CRBN^ILE391VAL) (Jackson Laboratories), 6 mice per treatment group were treated with either vehicle control or (R,S)-JQAD1 at 40 mg/kg/day by IP injection.” left out, “At day 14, three mice per treatment group were sacrificed and tissues fixed for immunohistochemistry.” left out
# Kelly NB cell xenografts = assay: Kelly NB cell subcutaneous xenografts in NSG mice; format: in vivo; details: 40 mg/Kg IP once or twice daily
# Protocol: For tumor studies, eight-week-old female NSG™ mice (Jackson Laboratories) were subcutaneously implanted with 2.5×10^6 Kelly cells in 50% matrigel/PBS. Mice were assigned to three groups: vehicle (n=11), JQAD1 (40 mg/kg/day) (n=12) or JQAD1 (40 mg/kg, twice daily) (n=12) by IP injection. Treatment with small-molecule inhibitors was initiated once tumors engrafted and reached 100-150 mm^3. Mice were treated for 21 days and then followed for survival. Tumors were measured by calipers, and mice were weighed every three days. Animals were euthanized according to institutional guidelines when tumors reached […] in length or width, or if animals became moribund. Tumor sizes were compared at each time point by two-way ANOVA with post-hoc Tukey tests. Tumor growth curve kinetics were analyzed by both logistic regression and mixed-effects two-way ANOVA with post-hoc Tukey tests to determine whether growth kinetics differed between treatment groups.
# Separately, eight animals were xenografted as described above, and treated with vehicle (n=4) or JQAD1 (n=4) at 40 mg/kg IP daily for 14 days. These animals were sacrificed at day 14, following which tumor was extracted, and divided for immunohistochemical analysis or analysis of RNA expression by RNA sequencing (RNA-seq).
# CBP = biological target: T2, CBP (Mus musculus, UniProt P45481); assay: Immunohistochemistry of CBP in liver of Crbn ILE391VAL knockin mice; format: in vivo; details: 40 mg/Kg IP daily, 14 days
# T2 construct: from tissue; host or cells: liver of Balb/c Crbn^ILE391VAL knock-in mice
# Protocol: as §2, with “For MTD testing in humanized CRBN knockin (Balb/c CRBN^ILE391VAL) (Jackson Laboratories), 6 mice per treatment group were treated with either vehicle control or (R,S)-JQAD1 at 40 mg/kg/day by IP injection.” left out, “At day 14, three mice per treatment group were sacrificed and tissues fixed for immunohistochemistry.” left out, “measurements. […]” for “measurements.”
# T1 sequence (Q09472 whole entry): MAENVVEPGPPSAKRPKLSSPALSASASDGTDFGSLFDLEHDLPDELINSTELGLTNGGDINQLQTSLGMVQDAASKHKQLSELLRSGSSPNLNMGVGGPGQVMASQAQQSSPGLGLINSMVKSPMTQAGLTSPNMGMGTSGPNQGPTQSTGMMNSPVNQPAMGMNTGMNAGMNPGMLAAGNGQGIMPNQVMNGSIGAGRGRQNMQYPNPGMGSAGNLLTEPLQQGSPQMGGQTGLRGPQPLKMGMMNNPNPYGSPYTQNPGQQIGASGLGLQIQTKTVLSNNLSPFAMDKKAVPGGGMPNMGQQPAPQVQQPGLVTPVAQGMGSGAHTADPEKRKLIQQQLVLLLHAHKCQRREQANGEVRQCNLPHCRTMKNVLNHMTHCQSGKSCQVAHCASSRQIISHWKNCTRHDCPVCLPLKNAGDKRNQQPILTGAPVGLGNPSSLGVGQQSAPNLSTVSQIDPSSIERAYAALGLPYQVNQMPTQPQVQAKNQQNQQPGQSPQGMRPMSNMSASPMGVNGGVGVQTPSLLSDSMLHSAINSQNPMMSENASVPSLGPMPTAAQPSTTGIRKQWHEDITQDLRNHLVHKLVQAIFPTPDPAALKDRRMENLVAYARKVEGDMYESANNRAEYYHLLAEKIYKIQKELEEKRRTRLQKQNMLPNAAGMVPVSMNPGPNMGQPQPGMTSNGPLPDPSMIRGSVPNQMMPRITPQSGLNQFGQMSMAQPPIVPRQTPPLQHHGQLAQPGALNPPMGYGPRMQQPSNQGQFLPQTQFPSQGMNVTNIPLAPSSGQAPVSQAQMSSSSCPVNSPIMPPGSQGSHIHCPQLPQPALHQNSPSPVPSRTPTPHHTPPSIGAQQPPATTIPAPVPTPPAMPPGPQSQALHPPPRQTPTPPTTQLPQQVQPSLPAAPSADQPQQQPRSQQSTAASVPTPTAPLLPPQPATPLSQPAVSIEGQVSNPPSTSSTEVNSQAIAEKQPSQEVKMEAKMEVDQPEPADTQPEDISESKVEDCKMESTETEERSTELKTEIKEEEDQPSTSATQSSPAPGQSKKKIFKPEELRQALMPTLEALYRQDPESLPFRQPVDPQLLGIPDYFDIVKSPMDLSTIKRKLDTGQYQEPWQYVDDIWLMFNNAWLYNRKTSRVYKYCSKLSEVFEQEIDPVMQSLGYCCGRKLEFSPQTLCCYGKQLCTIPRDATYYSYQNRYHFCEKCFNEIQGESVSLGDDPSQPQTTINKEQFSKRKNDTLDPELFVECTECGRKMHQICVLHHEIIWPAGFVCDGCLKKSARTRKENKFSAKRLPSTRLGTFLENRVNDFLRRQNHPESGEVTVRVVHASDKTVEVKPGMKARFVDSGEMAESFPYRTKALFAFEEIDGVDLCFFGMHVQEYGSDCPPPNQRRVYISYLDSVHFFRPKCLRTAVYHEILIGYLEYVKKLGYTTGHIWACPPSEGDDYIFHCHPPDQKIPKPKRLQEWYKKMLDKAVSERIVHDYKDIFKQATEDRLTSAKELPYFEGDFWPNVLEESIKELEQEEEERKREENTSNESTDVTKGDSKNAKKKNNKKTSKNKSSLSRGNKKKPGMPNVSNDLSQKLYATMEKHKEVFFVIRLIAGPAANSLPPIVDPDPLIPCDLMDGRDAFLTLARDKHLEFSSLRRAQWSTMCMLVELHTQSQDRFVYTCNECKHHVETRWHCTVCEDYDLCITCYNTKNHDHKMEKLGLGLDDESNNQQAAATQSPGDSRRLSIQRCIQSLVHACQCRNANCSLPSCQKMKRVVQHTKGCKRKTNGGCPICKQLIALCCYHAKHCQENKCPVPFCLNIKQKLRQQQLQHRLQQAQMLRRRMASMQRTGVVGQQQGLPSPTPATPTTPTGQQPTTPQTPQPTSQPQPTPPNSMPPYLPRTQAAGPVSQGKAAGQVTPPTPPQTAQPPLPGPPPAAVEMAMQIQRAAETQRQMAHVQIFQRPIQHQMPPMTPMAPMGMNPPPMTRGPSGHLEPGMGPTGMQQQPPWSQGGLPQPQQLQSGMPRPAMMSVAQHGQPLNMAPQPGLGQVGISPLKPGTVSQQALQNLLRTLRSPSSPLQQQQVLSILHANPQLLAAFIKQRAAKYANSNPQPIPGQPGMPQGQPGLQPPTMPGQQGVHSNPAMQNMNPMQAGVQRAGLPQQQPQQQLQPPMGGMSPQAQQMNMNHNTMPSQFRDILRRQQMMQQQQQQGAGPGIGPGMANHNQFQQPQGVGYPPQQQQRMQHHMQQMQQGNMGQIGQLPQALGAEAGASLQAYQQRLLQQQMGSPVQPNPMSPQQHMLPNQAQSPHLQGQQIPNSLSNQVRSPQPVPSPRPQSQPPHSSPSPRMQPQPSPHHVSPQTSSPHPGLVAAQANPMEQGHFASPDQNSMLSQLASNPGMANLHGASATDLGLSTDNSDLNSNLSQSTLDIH
# T2 sequence (P45481 whole entry): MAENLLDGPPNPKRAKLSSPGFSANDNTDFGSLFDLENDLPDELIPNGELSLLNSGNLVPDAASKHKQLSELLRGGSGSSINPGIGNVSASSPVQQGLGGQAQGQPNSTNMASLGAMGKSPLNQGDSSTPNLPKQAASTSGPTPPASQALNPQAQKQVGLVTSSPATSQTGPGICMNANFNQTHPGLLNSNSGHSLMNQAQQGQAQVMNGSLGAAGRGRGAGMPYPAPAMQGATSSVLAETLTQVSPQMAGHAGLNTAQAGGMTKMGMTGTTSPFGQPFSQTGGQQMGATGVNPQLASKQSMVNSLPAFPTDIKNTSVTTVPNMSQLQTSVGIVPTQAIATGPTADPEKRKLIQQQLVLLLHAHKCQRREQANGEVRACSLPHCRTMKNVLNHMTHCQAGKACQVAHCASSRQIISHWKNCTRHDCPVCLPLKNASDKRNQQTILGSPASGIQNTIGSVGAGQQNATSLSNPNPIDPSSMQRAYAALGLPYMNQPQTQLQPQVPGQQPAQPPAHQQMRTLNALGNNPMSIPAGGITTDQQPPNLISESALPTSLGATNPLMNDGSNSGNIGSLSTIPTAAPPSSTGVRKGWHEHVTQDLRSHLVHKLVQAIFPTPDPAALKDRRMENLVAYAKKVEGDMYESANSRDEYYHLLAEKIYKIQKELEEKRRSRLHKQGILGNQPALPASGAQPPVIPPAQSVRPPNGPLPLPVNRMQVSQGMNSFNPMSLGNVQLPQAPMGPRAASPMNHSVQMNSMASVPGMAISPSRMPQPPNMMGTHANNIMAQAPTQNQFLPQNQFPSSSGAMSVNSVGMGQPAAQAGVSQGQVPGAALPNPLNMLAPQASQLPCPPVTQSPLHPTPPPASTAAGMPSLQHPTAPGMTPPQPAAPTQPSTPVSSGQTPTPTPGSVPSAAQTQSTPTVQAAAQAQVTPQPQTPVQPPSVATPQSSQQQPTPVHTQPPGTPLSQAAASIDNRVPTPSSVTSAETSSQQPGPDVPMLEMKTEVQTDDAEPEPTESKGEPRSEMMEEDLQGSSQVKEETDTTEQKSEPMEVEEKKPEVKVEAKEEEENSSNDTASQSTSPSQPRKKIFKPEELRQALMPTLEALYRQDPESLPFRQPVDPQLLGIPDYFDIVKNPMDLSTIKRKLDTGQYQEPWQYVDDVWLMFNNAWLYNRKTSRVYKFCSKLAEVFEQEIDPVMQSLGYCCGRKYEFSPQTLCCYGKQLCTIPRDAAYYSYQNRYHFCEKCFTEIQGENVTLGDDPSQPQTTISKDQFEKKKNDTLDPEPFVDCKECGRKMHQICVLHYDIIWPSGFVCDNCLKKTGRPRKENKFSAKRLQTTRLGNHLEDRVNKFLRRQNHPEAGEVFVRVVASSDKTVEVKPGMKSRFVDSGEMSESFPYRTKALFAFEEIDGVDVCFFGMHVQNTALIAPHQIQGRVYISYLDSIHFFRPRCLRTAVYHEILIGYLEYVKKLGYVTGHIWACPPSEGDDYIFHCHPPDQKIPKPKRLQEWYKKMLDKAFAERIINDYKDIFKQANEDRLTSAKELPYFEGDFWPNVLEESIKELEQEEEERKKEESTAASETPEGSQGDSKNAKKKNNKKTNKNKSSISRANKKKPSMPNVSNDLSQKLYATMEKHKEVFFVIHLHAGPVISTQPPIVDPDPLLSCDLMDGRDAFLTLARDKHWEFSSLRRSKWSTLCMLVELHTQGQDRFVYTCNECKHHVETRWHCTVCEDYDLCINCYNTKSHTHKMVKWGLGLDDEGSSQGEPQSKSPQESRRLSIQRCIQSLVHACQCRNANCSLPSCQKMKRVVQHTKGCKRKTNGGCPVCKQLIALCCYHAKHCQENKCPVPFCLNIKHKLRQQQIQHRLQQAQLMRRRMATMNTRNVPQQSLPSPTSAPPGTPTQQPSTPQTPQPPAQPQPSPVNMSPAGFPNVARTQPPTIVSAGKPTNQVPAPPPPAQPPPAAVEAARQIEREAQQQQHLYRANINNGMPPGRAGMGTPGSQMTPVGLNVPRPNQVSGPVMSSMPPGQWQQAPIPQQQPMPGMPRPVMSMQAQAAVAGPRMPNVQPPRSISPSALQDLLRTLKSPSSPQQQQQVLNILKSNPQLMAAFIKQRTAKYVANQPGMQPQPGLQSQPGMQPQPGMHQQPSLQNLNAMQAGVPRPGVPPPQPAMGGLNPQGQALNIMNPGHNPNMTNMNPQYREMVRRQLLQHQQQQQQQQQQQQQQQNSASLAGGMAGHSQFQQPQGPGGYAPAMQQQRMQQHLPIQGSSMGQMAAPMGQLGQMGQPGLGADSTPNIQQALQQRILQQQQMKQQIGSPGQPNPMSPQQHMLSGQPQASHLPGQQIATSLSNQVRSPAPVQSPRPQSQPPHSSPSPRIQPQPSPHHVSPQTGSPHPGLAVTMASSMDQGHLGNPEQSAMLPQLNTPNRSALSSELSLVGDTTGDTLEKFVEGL
structure (smiles),measurement,setting,value
"C[C@H](N(Cc1ccc(F)cc1)C(=O)CN1C(=O)O[C@@]2(CCc3cc(NC(=O)CCCCCCCCCCCNc4ccc5c(c4)C(=O)N(C4CCC(=O)NC4=O)C5=O)ccc32)C1=O)C(F)(F)F (stereo partly drawn) [JQAD1, 12-((2-(2,6-dioxopiperidin-3-yl)-1,3-dioxoisoindolin-5-yl)amino)-N-((R)-3′-(2-((4-fluorobenzyl)((S)-1,1,1-trifluoropropan-2-yl)amino)-2-oxoethyl)-2′,4′-dioxo-2,3-dihydrospiro[indene-1,5′-oxazolidin]-5-yl)dodecanamide]",EP300 expression in BE2C-CRBN cells,"EP300; BE2C cells overexpressing CRBN, 10 μM",degraded within 24 h
same,EP300 expression in control BE2C-zsGreen cells,"EP300; BE2C-zsGreen cells, 10 μM",unaffected
same,"degradation of EP300 on co-treatment with excess A485, pomalidomide, bortezomib or MLN4924","EP300; Kelly cells, 4 h pre-treatment, then JQAD1 500 nM 48 h",blocked
same,EP300 expression,"EP300; Kelly cells, 24 h",dose-dependent decrease in EP300 expression
same,EP300 expression,"EP300; Kelly cells, 24 h, listed as (R,S)-JQAD1",suppressed both H3K27ac and EP300 expression levels
same,EP300 expression (time course),"EP300; Kelly, NGP and SIMA cells",selective loss of EP300 expression by 24 h
same,"EP300, H3K27ac and PARP1 cleavage in control versus CRBN-edited cells","EP300; Kelly-Cas9 cells, 500 nM, 24 h","suppressed EP300 expression and the H3K27ac modification, and induced apoptosis marked by PARP1 cleavage in control knockout cells, but not in CRBN-edited cells"
same,chromatin-bound MYCN,MYCN,loss of both EP300 and chromatin-bound MYCN proteins
same,half-life,[1],13.3 (+/−3.37) h
same,Cmax,"[1]; female, mouse",7 µM
same,half-life,"[1]; female, mouse, read-out: half-life (converted)",798 min
same,tolerability / animal weight,"[2]; daily IP at increasing doses (10, 20, 40 mg/kg), CD1 mice",well tolerated with no signs of animal weight loss; also recorded: no effect on animal weight
same,maximal dosage for single-dose IP administration without evident toxicity,"[2]; mouse, IP",40 mg/kg
same,body weight,Kelly NB cell xenografts; NSG mice,body weight was maintained over 14 days of treatment
same,survival,Kelly NB cell xenografts; log-rank p<0.0001 versus vehicle,prolongation of survival; also recorded: prolongs survival
same,xenograft tumor growth,Kelly NB cell xenografts; p<0.05,suppression of xenograft tumor growth by day 3 of treatment
same,CBP in liver,CBP,CBP remained detectable by immunohistochemistry

# Source: patent US20240156800A1, “EP300 DEGRADER AND USES THEREOF IN NEUROBLASTOMA” (DANA-FARBER CANCER INSTITUTE, INC., priority 2021, published 2024)
